Patent US9795677B2, “Method for reducing damage caused by free radicals” (Original BioMedicals Co., Ltd, priority 2012, dated 2017)

Tests used:
[1] = cited from earlier work
[2] = tested on: NMRI mice; experiment: Acute radiation protection in irradiated mice (WBC number); assay type: in vivo, mouse; settings: 8Gy; amifostine 6.25 mg/kg i.v. 30 min before irradiation; 30 days after treatment
Procedure: Efficacy Result: In animal study, 30-day old NMRI mice weighing 20 to 30 g were tested for acute radiation protection. For radiation control group, mice were given 1, 4, and 8 Gy irradiation in 10 minutes, and for the standard treatment group, FDA-approved amifostine (6.25 mg/kg) was injected intravenously, and 30 minutes later the animals were given 8 Gy irradiation in 10 minutes. The 30 mins duration design is based on the short half-life of amifostine. A-01 indicates FePA with a formulation ratio of PEG-b-PGA:FeCl2.4H2O:amifostine=4:1:1 (w:w:w). The animals in the test group A-01 were administered intravenously with 37.5 mg/kg A-01 (containing the same amount of amifostine as used in the standard treatment group), and 120 minutes post injection, the animals were given 8 Gy radiation in 10 minutes. WBC number and survival rates were analyzed 30 days after treatment.

[3] = tested on: mouse embryonic liver cells (BNLCL.2); experiment: Comet Assay of UV-irradiated cells (DNA damage); assay type: cell-based; settings: BNLCL.2 cells, UVB 100 J·m-2; treatment given 30 minutes or 2 hr before UV irradiation; API and FeP 40 folds, FePA 20 folds dilution with PBS
Procedure: UV irradiation of the cells was used in this experiment to simulate the effects of radiation on normal cells, and the results were evaluated by Comet Assay. Comet Assay is a fast, sensitive and convenient method for examining DNA damage and is widely used in studying DNA damage caused by radiation, examining DNA crosslink, evaluating genotoxicity of drugs and identifying cell apoptosis, etc. […]
The mouse embryonic liver cells (BNLCL.2) were inoculated onto a 35 mm culture dish at the density of 3*10^5 cell/mL and cultured for at least 20 hours before subjected to the test. […] The treated cells were then collected with a scraper, counted, and centrifuged at 1,200 rpm for 5 minutes. […]
The bottle containing LM agarose was placed in 95° C. water for 5 minutes with loosed cap and then transferred to a 37° C. water bath for at least 20 minutes. […] The resulting images were analyzed using the epifluorescence microscope (the maximum excitation and emission wavelength of SYBR®Green I are 494 nm and 521 nm, respectively.) The fluorescence filter was also adjusted accordingly for efficient lighting) 200×.

Q: For NCCCNCCSP(=O)(O)O [Amifostine], which “amifostine remaining after i.v. injection” value ([1]; 6 minutes after i.v. injection) is on record?
A: Its value is 10%.

Q: And the distribution half-life ([1]; patients)?
A: Its distribution half-life is “less than 1 minute”.

Q: What about the elimination half-life ([1]; patients) of the same compound?
A: The elimination half-life was 8 min.

Q: What about the WBC [2] of the same compound?
A: The WBC was 3.04-3.80 1000/cm^3.

Q: And the “average percentage of damaged DNA in the tail of the Comet (% TDNA) compared with the positive control group (UV)” value [3]?
A: The value was “significantly reduced”.
